Test results published in patent US7291627B2, “Dihydroimidazo[5.1-a]-beta-carboline derivatives, method for their preparation, and their application as a drug” (MACEF, priority 2001, dated 2007).

Assays:
JA 657 chicks = assay: Chick sleep/sedation test (IM injection, 90 minute observation); type: in vivo; conditions: for Sed (sedation time as % of the period) / TA (time to torpor between injection and first stage of sleep) / TS (duration of the first sleep) / Tsed (total sedation time over the period): 90 min observation; for TS (mins) Placebo diff'ce: extension of first sleep compared with test controls
Summary of the method: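 JA 657 chicks (~100 g, 12 h light/dark cycle, 25 °C) received 1, 3 or 10 mg/kg IM, two batches of 3 per dose, with water-injected controls. Alertness was scored in 5-min blocks over 90 min with feeding stimulation every 15 min. Recorded measures were time to torpor, first-sleep duration (also as prolongation versus controls) and total sedation time.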

Beagle dogs = assay: Polysomnographic study in the dog (EEG, 4 hours after oral gelule); type: in vivo; conditions: oral gelule; for Time passed at stage: Alertness / Time passed at stage: REM / Time passed at stage: SWS / Time passed at stage: Somnolence: four hours of monitoring
Experimental: The dihydroimidazo[5,1-a]-β-carboline derivatives of the invention, in particular those in the form of the methyl sulfonate, (soluble), were tested in chicks, and certain compounds that were active in the chick were administered in single doses to six Beagle dogs of both sexes for a polysomnographic study of at least 4 hours duration.
Polysomnographic tests were carried out for each of the three products from the series, on 6 dogs of both sexes, adults from the certified breeding kennels at HARLAN, 03 Gannat, using stainless steel electrodes surgically implanted for the duration of the test in contact with the frontal bones through the sinus, facing the motor regions of the encephalus. The Nishino et al method adapted by Tafani, Valin et al has been described elsewhere. It comprised recording two traces for eye movements, one trace for muscular movements (concentric electrode in the nape muscles) and two electroencephalographic (EEG) traces. The digital EEG trace was recorded using a Nicollet Schwarzer polygraph or the like (DELTAMED Coherence 2 and 3, MEI Galileo NT) for 4 hours after administering a 00 gelule containing 0, 16 or 48 mg of the test product (i.e. a mean of 0,1 and 3 mg/kg of live weight).
Each dog was monitored for 4 hours twice a day over two days, morning and afternoon, after one week's acclimatization to the monitoring cage, a 1 m^2, 80 cm high stainless steel cage of the SHOR-LINE type. For each dog, monitoring always commenced at the same time. A meal was distributed 30 minutes before starting monitoring.
The polysomnographic traces could differentiate between at least 4 stages for each consecutive 30 second period: awake, somnolence, slow sleep and paradoxal sleep. The latency of the appearance of each of the first nonalert episodes and the duration of each of the stages per 2 hour period were recorded for each dog. Comparing the means allowed the effect of the test products on the sleep microstructure to be studied.

CS(=O)(=O)O.Cc1ncc2n1CCc1c-2[nH]c2ccc(Cl)cc12 [Example 13, 8-chloro-3-methyl-5,6-dihydroimidazo[5,1-a]-β-carboline methane sulfonate]
Sed (sedation time as % of the period) (JA 657 chicks; Dose: 1 mg/kg): 57.8% | TA (time to torpor between injection and first stage of sleep) (JA 657 chicks; Dose: 1 mg/kg): 16.5 min | TS (duration of the first sleep) (JA 657 chicks; Dose: 1 mg/kg): 33.5 min | Tsed (total sedation time over the period) (JA 657 chicks; Dose: 1 mg/kg): 52 min | TS (mins) Placebo diff'ce (JA 657 chicks; Dose: 1 mg/kg): 33 min | Sed (sedation time as % of the period) (JA 657 chicks; Dose: 3 mg/kg): 81.1% | TA (time to torpor between injection and first stage of sleep) (JA 657 chicks; Dose: 3 mg/kg): 9.5 min | TS (duration of the first sleep) (JA 657 chicks; Dose: 3 mg/kg): 73 min | Tsed (total sedation time over the period) (JA 657 chicks; Dose: 3 mg/kg): 73 min | TS (mins) Placebo diff'ce (JA 657 chicks; Dose: 3 mg/kg): 73 min | Sed (sedation time as % of the period) (JA 657 chicks; Dose: 10 mg/kg): 95.6% | TA (time to torpor between injection and first stage of sleep) (JA 657 chicks; Dose: 10 mg/kg): 4 min | TS (duration of the first sleep) (JA 657 chicks; Dose: 10 mg/kg): 86 min | Tsed (total sedation time over the period) (JA 657 chicks; Dose: 10 mg/kg): 86 min | TS (mins) Placebo diff'ce (JA 657 chicks; Dose: 10 mg/kg): 85.7 min | Latency: Paradoxal (REM) sleep (Beagle dogs; 1 mg): 63 ± 28.2 min | Latency: Slow wave sleep (SWS) (Beagle dogs; 1 mg): 32 ± 11.5 min | Latency: Somnolence (Beagle dogs; 1 mg): 25 ± 11.6 min | Time passed at stage: Alertness (Beagle dogs; 1 mg): 135 ± 44.3 min | Time passed at stage: REM (Beagle dogs; 1 mg): 21 ± 13.6 min | Time passed at stage: SWS (Beagle dogs; 1 mg): 57 ± 26.5 min | Time passed at stage: Somnolence (Beagle dogs; 1 mg): 24 ± 2.6 min | Latency: Paradoxal (REM) sleep (Beagle dogs; 3 mg): 56 ± 19.5 min | Latency: Slow wave sleep (SWS) (Beagle dogs; 3 mg): 35 ± 11 min | Latency: Somnolence (Beagle dogs; 3 mg): 27 ± 9.1 min | Time passed at stage: Alertness (Beagle dogs; 3 mg): 122 ± 36.5 min | Time passed at stage: REM (Beagle dogs; 3 mg): 26 ± 13.5 min | Time passed at stage: SWS (Beagle dogs; 3 mg): 61 ± 24.9 min | Time passed at stage: Somnolence (Beagle dogs; 3 mg): 31 ± 7 min
